# pIC50, pKi: −log10 of the molar value.
# Tests used:
# MCF7 [1] = assay: Anticancer activity against human MCF7 cells incubated for 24 to 72 hrs by MTT assay; format: functional, cell-based
# MCF7 [2] = assay: Anticancer activity against human MCF7 cells incubated for 48 hrs by MTT assay; conditions: MCF7, 48 h
# [3] = target: T1, Epidermal growth factor receptor (Homo sapiens, UniProt P00533); assay: Inhibition of EGFR (unknown origin) using Poly (Glu, Tyr) as substrate at 10 uM incubated for 40 mins in presence of ATP by Kinase-Glo Plus luminescence kinase assay relative to control
# MCF7 [4] = assay: Anticancer activity against human MCF7 cells; format: functional, cell-based
# MCF7 [5] = assay: Anti-proliferative activity against human MCF7 cells by MTT assay; format: functional, cell-based
# MCF7 [6] = assay: Anticancer activity against human MCF7 cells incubated for 24 hrs by MTT assay; format: functional, cell-based; conditions: MCF7, 24 h
# MDA-MB-231 [7] = assay: Cytotoxicity against human MDA-MB-231 cells incubated for 72 hrs by MTT assay; format: functional, cell-based; conditions: MDA-MB-231, 72 h
# MCF7 [8] = assay: Antitumor activity against human MCF7 cells by MTT assay
# [9] = target: Serine/threonine-protein kinase mTOR (Homo sapiens, UniProt P42345); assay: Inhibition of mTOR (unknown origin)
# MCF7 [10] = assay: Cytotoxicity against human MCF7 cells
# MCF7 [11] = assay: Anti-proliferative activity against human MCF7 cells incubated for 72 hrs by MTT assay; format: functional, cell-based; conditions: MCF7, 72 h
# [12] = target: T2, Phosphatidylinositol 4,5-bisphosphate 3-kinase catalytic subunit alpha isoform (Homo sapiens, UniProt P42336); assay: Inhibition of PI3K-alpha (unknown origin)
# [13] = target: T1, Epidermal growth factor receptor; assay: Inhibition of EGFR (unknown origin)
# MDA-MB-468 [14] = assay: Anticancer activity against human MDA-MB-468 cells assessed as cell growth inhibition incubated for 48 hrs by SRB assay; format: functional, cell-based; conditions: MDA-MB-468, 48 h
# MDA-MB-468 [15] = assay: Anticancer activity against human MDA-MB-468 cells assessed as cell growth inhibition under hypoxia incubated for 48 hrs by SRB assay relative to control; format: functional
# MCF7 [16] = assay: Inhibition of cell proliferation of human MCF7 cells incubated for 24 hrs by MTT assay; format: functional, cell-based; conditions: MCF7, 24 h
# MDA-MB-231 [17] = assay: Inhibition of cell proliferation of human MDA-MB-231 cells incubated for 24 hrs by MTT assay; format: functional, cell-based; conditions: MDA-MB-231, 24 h
# MDA-MB-468 [18] = assay: Anticancer activity against human MDA-MB-468 cells assessed as cell growth inhibition under normoxia at 10 uM incubated for 48 hrs by SRB assay relative to control; format: functional; conditions: read-out: GI
# [19] = target: T2, Phosphatidylinositol 4,5-bisphosphate 3-kinase catalytic subunit alpha isoform; assay: Inhibition of PI3K-alpha (unknown origin) at 100 uM relative to control
# MCF7 [20] = assay: Cytotoxicity against human MCF7 cells assessed as cell growth inhibition incubated for 72 hrs by MTT assay; format: functional, cell-based; conditions: MCF7, 72 h
# MCF7 [21] = assay: Anti-cancer activity against human MCF7 cells; format: functional, cell-based
# MDA-MB-231 [22] = assay: Antiproliferative activity against human MDA-MB-231 cells; format: functional, cell-based
# [23] = Inhibition of PI3K (unknown origin); parameters: species or system Homo sapiens
# MCF7 [24] = assay: Inhibition of cell viability in human MCF7 cells incubated for 48 hrs by MTT assay; format: functional, cell-based; conditions: MCF7, 48 h
# [25] = target: T1, Epidermal growth factor receptor; assay: Inhibition of EGFR (unknown origin) by ELISA
# MDA-MB-231 [26] = assay: Inhibition of cell survival in human MDA-MB-231 cells incubated for 72 hrs by MTT assay; format: functional, cell-based; conditions: MDA-MB-231, 72 h
# Carbonic anhydrase 9 = Carbonic anhydrase 9 (Homo sapiens, UniProt Q16790); assay: Inhibition of human CA-IX
# T1 sequence (P00533 whole entry): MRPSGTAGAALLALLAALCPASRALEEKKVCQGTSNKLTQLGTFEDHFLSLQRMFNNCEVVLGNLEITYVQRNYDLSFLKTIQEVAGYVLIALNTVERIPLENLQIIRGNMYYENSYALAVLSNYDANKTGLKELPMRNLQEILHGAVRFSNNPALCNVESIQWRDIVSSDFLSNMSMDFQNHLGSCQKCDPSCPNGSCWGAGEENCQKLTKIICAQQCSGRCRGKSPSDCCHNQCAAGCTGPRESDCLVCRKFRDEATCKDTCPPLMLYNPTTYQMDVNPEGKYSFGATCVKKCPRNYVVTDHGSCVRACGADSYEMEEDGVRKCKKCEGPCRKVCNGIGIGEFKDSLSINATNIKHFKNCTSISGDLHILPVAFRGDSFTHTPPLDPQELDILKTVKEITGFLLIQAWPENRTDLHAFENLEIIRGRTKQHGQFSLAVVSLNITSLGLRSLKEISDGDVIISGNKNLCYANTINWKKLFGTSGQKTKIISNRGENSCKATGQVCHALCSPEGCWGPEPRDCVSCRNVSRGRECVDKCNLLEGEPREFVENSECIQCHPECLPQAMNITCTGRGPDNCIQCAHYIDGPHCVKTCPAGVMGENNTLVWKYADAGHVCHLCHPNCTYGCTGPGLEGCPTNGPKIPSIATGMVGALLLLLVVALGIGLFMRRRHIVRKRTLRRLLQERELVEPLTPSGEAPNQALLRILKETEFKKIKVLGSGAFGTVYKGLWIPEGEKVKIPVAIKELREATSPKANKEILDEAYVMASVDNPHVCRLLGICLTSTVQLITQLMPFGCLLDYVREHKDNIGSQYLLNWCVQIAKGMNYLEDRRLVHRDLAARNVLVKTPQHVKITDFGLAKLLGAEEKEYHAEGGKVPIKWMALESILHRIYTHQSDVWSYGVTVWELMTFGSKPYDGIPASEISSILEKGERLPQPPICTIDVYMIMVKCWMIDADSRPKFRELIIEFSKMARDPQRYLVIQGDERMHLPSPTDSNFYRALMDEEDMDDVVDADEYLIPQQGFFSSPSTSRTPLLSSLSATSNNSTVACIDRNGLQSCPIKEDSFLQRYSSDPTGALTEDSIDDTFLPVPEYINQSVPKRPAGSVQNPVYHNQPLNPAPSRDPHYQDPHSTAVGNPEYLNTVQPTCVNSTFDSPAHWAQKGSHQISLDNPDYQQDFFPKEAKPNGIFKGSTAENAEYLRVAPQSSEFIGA
# T2 sequence (P42336 whole entry, canonical isoform): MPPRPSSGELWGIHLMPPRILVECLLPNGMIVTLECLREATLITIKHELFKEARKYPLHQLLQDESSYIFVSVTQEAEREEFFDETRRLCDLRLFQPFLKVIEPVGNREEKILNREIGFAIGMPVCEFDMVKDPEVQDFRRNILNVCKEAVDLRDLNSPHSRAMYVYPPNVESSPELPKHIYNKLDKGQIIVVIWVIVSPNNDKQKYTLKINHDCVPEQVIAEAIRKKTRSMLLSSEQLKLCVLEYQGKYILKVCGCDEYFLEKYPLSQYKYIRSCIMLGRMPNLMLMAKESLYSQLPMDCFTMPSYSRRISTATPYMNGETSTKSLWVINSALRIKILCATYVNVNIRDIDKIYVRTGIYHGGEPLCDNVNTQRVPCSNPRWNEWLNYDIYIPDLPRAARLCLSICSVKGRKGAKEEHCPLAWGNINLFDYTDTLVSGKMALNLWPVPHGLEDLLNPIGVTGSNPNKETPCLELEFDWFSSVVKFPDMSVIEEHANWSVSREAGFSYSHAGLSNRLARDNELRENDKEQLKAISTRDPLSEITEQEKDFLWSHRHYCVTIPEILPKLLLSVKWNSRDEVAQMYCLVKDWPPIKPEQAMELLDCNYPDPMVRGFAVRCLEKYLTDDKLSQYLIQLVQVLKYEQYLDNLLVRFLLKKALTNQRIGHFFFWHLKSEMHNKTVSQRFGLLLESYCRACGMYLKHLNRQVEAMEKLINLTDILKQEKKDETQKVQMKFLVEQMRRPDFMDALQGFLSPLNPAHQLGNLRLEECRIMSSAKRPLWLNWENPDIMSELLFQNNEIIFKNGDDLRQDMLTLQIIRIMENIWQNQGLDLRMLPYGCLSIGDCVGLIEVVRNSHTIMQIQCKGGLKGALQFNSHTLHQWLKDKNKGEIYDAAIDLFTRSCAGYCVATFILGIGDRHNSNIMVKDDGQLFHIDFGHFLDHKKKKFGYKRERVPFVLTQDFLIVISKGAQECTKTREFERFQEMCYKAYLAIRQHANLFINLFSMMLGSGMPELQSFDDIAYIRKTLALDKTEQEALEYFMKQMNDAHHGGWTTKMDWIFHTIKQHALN
smiles,measurement,setting,value
Cc1nc2ccc(Br)cc2c(=O)n1Nc1nc(Nc2cccc(Cl)c2)nc(N2CCNCC2)n1,pIC50,MCF7 [1],5.15
Cc1nc2cc(Br)c(Br)cc2c(=O)n1-c1ccc(Nc2nc(N3CCCCC3)nc(N3CCOCC3)n2)cc1,pIC50,MCF7 [2],4.76
O=[N+]([O-])c1ccc(Nc2nc(NC(=S)NNc3ccnc4ccccc34)nc(Nc3ccc([N+](=O)[O-])cc3)n2)cc1,inhibition,[3],96.3%
same,pIC50,MCF7 [2],4.28
COc1ccc(Nc2nc(N3CCOCC3)nc(-n3nc(C)cc3C)n2)cc1,pIC50,MCF7 [4],5.53
NCc1ccc(-c2nc(N/N=C/c3ccc(Br)cc3)nc(N3CCCCC3)n2)cc1,pIC50,MCF7 [5],5.33
CC1=NN(c2nc(Nc3ccc(Br)cc3)nc(-n3nc(C)cc3C)n2)C(C)C1 (stereo unspecified),pIC50,MCF7 [4],5.58
CCOC(=O)C1=CN(c2nc(Nc3cccc(F)c3)nc(Nc3cccc(F)c3)n2)C(=S)NC1c1ccccc1OC (stereo unspecified),pIC50,MCF7 [6],4.32
same,inhibition,[3],94.3%
C=CCc1cc(C)cc(/C=N/NC(=O)Nc2ccc(-c3nc(N4CCOCC4)nc(N4CCOCC4)n3)cc2)c1O,pIC50,MDA-MB-231 [7],6.22
CCOC(=O)C1=CN(c2nc(Nc3cccc(F)c3)nc(Nc3cccc(F)c3)n2)C(=S)NC1c1ccc(F)cc1 (stereo unspecified),pIC50,MCF7 [6],4.38
same,inhibition,[3],96.4%
CCN(CC)c1nc(Nc2ccccc2)nc(Nc2ccc(S(=O)(=O)NC(=N)N)cc2)n1,pIC50,MCF7 [4],4.76
Cc1cc(/C=N/NC(=O)Nc2ccc(-c3nc(N4CCOCC4)nc(N4CCOCC4)n3)cc2)cc(C)c1O,pIC50,MDA-MB-231 [7],6.40
CS(=O)(=O)N1CCN(Cc2ccc(-c3nc(-c4cnc(N)nc4)nc(N4CCOCC4)n3)s2)CC1,pIC50,MCF7 [8],5.90
same,pIC50,[9],7.32
CNC(=O)Nc1ncc(-c2nc(-c3ccc(CN4CCN(S(C)(=O)=O)CC4)s3)nc(N3CCOCC3)n2)cn1,pIC50,[9],7.96
same,pIC50,MCF7 [10],7.52
NCc1ccc(-c2nc(N/N=C/c3ccc(Cl)cc3)nc(N3CCCCC3)n2)cc1,pIC50,MCF7 [11],5.48
CN(C)C(=O)C1CCC(Oc2nc(-c3cccc4[nH]ncc34)nc(N3CCOCC3)n2)CC1 (stereo unspecified),pIC50,[12],7.22
Cc1cc(C)n(-c2nc(Nc3ccc(Br)cc3)nc(N3CCOCC3)n2)n1,pIC50,MCF7 [4],5.34
same,pIC50,[13],7.21
COc1ccc(/C=N/NC(=O)Nc2ccc(-c3nc(N4CCOCC4)nc(N4CCOCC4)n3)cc2)cc1,pIC50,MDA-MB-231 [7],6.28
N#C/C(=C\c1cccc(F)c1)c1nc(N)nc(Nc2ccc(S(N)(=O)=O)cc2)n1,pIC50,MDA-MB-468 [14],5.83
same,growth inhibition (GI),MDA-MB-468 [15],65%
COc1nc(Nc2ccc(C#N)cc2)nc(-c2ccc(N)cc2)n1,pIC50,MCF7 [16],6.11
same,pIC50,MDA-MB-231 [17],5.07
COc1nc(Nc2ccc(C#N)cc2)nc(N2CCOCC2)n1,pIC50,MCF7 [16],5.37
same,pIC50,MDA-MB-231 [17],5.11
Cc1nc2cc(Br)c(Br)cc2c(=O)n1-c1ccc(Nc2nc(Nc3ccc(Br)cc3)nc(N3CCCCC3)n2)cc1,pIC50,MCF7 [2],4.75
CN(C)c1ccc(/C=C(\C#N)c2nc(N)nc(Nc3ccc(S(N)(=O)=O)cc3)n2)cc1,inhibition of growth at 10 µM,MDA-MB-468 [18],62%
same,pIC50,MDA-MB-468 [14],5.83
same,growth inhibition (GI),MDA-MB-468 [15],60%
CCN(CC)c1nc(NC(=S)NNc2ccnc3ccccc23)nc(N(CC)CC)n1,inhibition,[3],90.5%
same,pIC50,MCF7 [2],4.49
CCN(CC)c1nc(Nc2ccc(S(=O)(=O)NC(=N)N)cc2)nc(NN2CCOCC2)n1,pIC50,MCF7 [4],< 4.00
same,inhibition,[19],68%
CN(C)c1ccc(-c2nc(N)nc(Nc3ccccc3F)n2)cc1,pIC50,MCF7 [20],< 4.70
COc1nc(OC)nc(-c2nc(-c3nnc(-c4cc([N+](=O)[O-])cc([N+](=O)[O-])c4)o3)co2)n1,pIC50,MCF7 [21],5.87
Nc1ncc(-c2nc(-c3ccc(CN4CCOCC4)s3)nc(N3CCOCC3)n2)cn1,pIC50,MCF7 [8],5.58
same,pIC50,[9],7.16
COc1cc(OC)cc(-c2nnc(-c3coc(-c4nc(OC)nc(OC)n4)n3)o2)c1,pIC50,MCF7 [21],6.96
CC1CCN(c2nc(Cl)nc(Oc3ccc(-c4coc5cc(Oc6nc(Cl)nc(N7CCC(C)CC7)n6)cc(O)c5c4=O)cc3)n2)CC1,pIC50,MDA-MB-231 [22],4.64
CNc1nc(Nn2c(C)nc3ccc(Br)cc3c2=O)nc(N2CCNCC2)n1,pIC50,MCF7 [1],5.02
Cc1nc2cc(Br)c(Br)cc2c(=O)n1-c1ccc(Nc2nc(Nc3ccc(Cl)cc3)nc(N3CCCCC3)n2)cc1,pIC50,MCF7 [2],4.74
Cc1nc2ccc(Br)cc2c(=O)n1Nc1nc(Nc2ccc([N+](=O)[O-])cc2)nc(N2CCNCC2)n1,pIC50,MCF7 [1],5.02
COc1ccc(Nc2nc(N3CCCC3)nc(-n3nc(C)cc3C)n2)cc1,pIC50,MCF7 [4],5.42
FC(F)c1nc2ccccc2n1-c1nc(N2CCOCC2)nc(N2CCOCC2)n1 [ZSTK-474],pIC50,[23],7.43
CC1=NN(c2nc(Nc3ccc(Cl)cc3)nc(-n3nc(C)cc3C)n2)C(C)C1 (stereo unspecified),pIC50,MCF7 [4],5.64
COc1nc(OC)nc(-c2nc(-c3nnc(-c4cc(OC)c(OC)c(OC)c4)o3)co2)n1,pIC50,MCF7 [21],7.60
CN(C)c1nc(Cl)nc(NC2=NN(c3ccc(Br)cc3)C(c3ccc(C(F)(F)F)cc3)C2)n1 (stereo unspecified),pIC50,MCF7 [24],7.89
same,pIC50,[25],6.54
CN(C)c1nc(Cl)nc(NC2=NN(c3ccc(C(F)(F)F)cc3)C(c3ccc(C(F)(F)F)cc3)C2)n1 (stereo unspecified),pIC50,MCF7 [24],7.15
same,pIC50,[25],6.64
C(=N\Nc1nc(N2CCOCC2)nc(N2CCOCC2)n1)/c1ccccc1,pIC50,MCF7 [11],6.00
CCN(CC)c1nc(Nc2ccc(S(=O)(=O)NC(=N)N)cc2)nc(NC2CCCCC2)n1,pIC50,MCF7 [4],4.74
COc1cc(-c2nc(N)nc(Nc3ccc(C)cc3)n2)cc(OC)c1OC,pIC50,MCF7 [20],< 4.70
Nc1nc(COC(=O)c2ccc([N+](=O)[O-])cc2)nc(Nc2ccccc2)n1,pIC50,MDA-MB-231 [26],5.22
COc1nc(N/N=C/c2ccccc2)nc(-c2ccc(N)cc2)n1,pIC50,MCF7 [5],5.40
COc1nc(OC)nc(-c2nc(-c3nnc(-c4cc([N+](=O)[O-])c(Br)c([N+](=O)[O-])c4)o3)co2)n1,pIC50,MCF7 [21],7.02
NS(=O)(=O)c1ccc(CNc2nc(Cl)nc(Nc3ccc(O)cc3)n2)cc1,pKi,Carbonic anhydrase 9,9.40

# — ChEMBL document CHEMBL5608196, “1,3,5-Triazine as a promising scaffold in the development of therapeutic agents against breast cancer” (Eur J Med Chem, 2024)
